Test results reported in patent US10093683B2, “Factor XIa inhibitors” (Merck Sharp & Dohme Corp., priority 2014, dated 2018).
Like-named read-outs stand apart in the source and are kept apart here.

Biological target: human Factor XIa (Homo sapiens (Human), UniProt P03951)
Test: Factor XIa Assay
Assay type: biochemical
Settings: read-out: FXIa Ki
How it was run: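 Ki derived from the dependence of Vo/Vi on inhibitor concentration under a competitive-inhibition model, after pre-equilibration of enzyme and inhibitor. Reaction: 40 pM human FXIa, 100 μM Z-Gly-Pro-Arg-AFC, HEPES 50 mM pH 7.4 with NaCl, CaCl2 and PEG 8000; run at room temperature or 37° C.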

[1] = purified human Factor XIa 40 pM, Z-Gly-Pro-Arg-AFC 100 μM, pH 7.4

human Factor XIa, sequence (P03951 388-625): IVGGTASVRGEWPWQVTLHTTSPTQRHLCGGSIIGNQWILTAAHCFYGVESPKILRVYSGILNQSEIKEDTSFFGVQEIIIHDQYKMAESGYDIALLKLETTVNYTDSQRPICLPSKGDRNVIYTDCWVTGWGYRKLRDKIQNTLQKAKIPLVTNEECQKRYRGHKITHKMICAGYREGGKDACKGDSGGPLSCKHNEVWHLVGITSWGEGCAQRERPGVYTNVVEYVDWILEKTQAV
human Factor XIa, sequence (P03951 19-387 partner): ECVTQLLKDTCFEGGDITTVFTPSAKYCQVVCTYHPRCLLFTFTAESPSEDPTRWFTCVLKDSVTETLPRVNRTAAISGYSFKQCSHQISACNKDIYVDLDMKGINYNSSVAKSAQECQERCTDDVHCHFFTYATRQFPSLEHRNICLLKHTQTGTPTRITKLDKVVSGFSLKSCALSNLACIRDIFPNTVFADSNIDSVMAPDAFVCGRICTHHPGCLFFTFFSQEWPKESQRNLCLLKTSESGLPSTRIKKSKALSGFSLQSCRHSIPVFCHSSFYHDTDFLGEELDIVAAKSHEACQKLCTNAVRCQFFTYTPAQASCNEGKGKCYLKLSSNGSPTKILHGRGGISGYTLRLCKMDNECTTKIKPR

| Compound | Ki [1] | Ki |
| --- | --- | --- |
| COC(=O)Nc1ccc2[nH]c([C@@H](Cc3ccccc3)C(=O)N3CC[C@@]4(C3)OC(=O)Nc3ccc(Cl)cc34)nc2c1 [Example 131c, methyl (2-((R)-1-((R)-6-chloro-2-oxo-1,2-dihydrospiro[benzo[d][1,3]oxazine-4,3′-pyrrolidin]-1′-yl)-1-oxo-3-phenylpropan-2-yl)-1H-benzo[d]imidazol-5-yl)carbamate] | 354 nM | – |
| COC(=O)Nc1ccc(C(=O)N[C@@H](CCC(F)(F)F)C(=O)N2CCC[C@@]3(C2)OC(=O)Nc2ccc(Cl)c(F)c23)cc1 [Example 36, methyl (4-(((S)-1-((R)-6-chloro-5-fluoro-2-oxo-1,2-dihydrospiro[benzo[d][1,3]oxazine-4,3′-piperidin]-1′-yl)-5,5,5-trifluoro-1-oxopentan-2-yl)carbamoyl)phenyl)carbamate] | 84.4 nM | – |
| O=C1Nc2ccc(Cl)cc2[C@@]2(CCCN(C(=O)[C@H](CC3CC3)NC(=O)c3ccc(F)c(F)c3)C2)O1 [Example 202, N-((S)-1-((R)-6-chloro-2-oxo-1,2-dihydrospiro[benzo[d][1,3]oxazine-4,3′-piperidin]-1′-yl)-3-cyclopropyl-1-oxopropan-2-yl)-3,4-difluorobenzamide] | – | 925 nM |
| COC(=O)Nc1ccc(C(=O)N[C@@H](CC2CCCCC2)C(=O)N2CCC3(C2)OC(=O)Nc2ccc(Cl)cc23)cc1 (stereo partly drawn) [Example 34, methyl (4-(((2S)-1-(6-chloro-2-oxo-1,2-dihydrospiro[benzo[d][1,3]oxazine-4,3′-pyrrolidin]-1′-yl)-3-cyclohexyl-1-oxopropan-2-yl)carbamoyl)phenyl)carbamate] | 90 nM | – |
| COC(=O)Nc1ccc(C(=O)N[C@H](C(=O)N2CCC3(C2)OC(=O)Nc2ccc(Cl)cc23)c2ccccc2)cc1 (stereo partly drawn) [Example 29, methyl (4-(((1S)-2-(6-chloro-2-oxo-1,2-dihydrospiro[benzo[d][1,3]oxazine-4,3′-pyrrolidin]-1′-yl)-2-oxo-1-phenylethyl)carbamoyl)phenyl)carbamate] | ≥ 5000 nM | – |
| COC(=O)Nc1ccc(-c2ncc(C(Cc3ccccc3)C(=O)N3CC[C@@]4(C3)OC(=O)Nc3ccc(Cl)c(F)c34)[nH]2)cc1 (stereo partly drawn) [Example 130, methyl (4-(5-(1-((R)-6-chloro-5-fluoro-2-oxo-1,2-dihydrospiro[benzo[d][1,3]oxazine-4,3′-pyrrolidin]-1′-yl)-1-oxo-3-phenylpropan-2-yl)-1H-imidazol-2-yl)phenyl)carbamate] | 91.9 nM | – |

More lines, now with the values ahead:

| Ki [1] | Ki | Compound |
| --- | --- | --- |
| – | 774 nM | O=C1Nc2ccc(Cl)cc2C2(CCN(C(=O)[C@H](Cc3ccccc3)NC(=O)c3cccc(N4CCNC4=O)c3)C2)O1 (stereo partly drawn) [Example 169, N-((2S)-1-(6-chloro-2-oxo-1,2-dihydrospiro[benzo[d][1,3]oxazine-4,3′-pyrrolidin]-1′-yl)-1-oxo-3-phenylpropan-2-yl)-3-(2-oxoimidazolidin-1-yl)benzamide] |
| 109 nM | – | COC(=O)Nc1ccc(C(=O)N[C@@H](Cc2ccccc2)C(=O)N2CCC[C@@]3(C2)OC(=O)Nc2c(F)cc(Cl)cc23)cc1 [Example 12, methyl (4-(((S)-1-((R)-6-chloro-8-fluoro-2-oxo-1,2-dihydrospiro[benzo[d][1,3]oxazine-4,3′-piperidin]-1′-yl)-1-oxo-3-phenylpropan-2-yl)carbamoyl)phenyl)carbamate] |
| – | 184 nM | COC(=O)Nc1ccc(C(=O)N[C@@H](Cc2ccccc2)C(=O)N2CCC3(C2)OC(=O)Nc2ccc(Cl)cc23)nc1 (stereo partly shown) [Example 166] |
| – | 99.7 nM | O=C1C[S+]([O-])c2cc(C(=O)N[C@@H](Cc3ccccc3)C(=O)N3CCC4(C3)OC(=O)Nc3ccc(Cl)cc34)ccc2N1 (stereo partly drawn) [Example 192, N-((2S)-1-(6-chloro-2-oxo-1,2-dihydrospiro[benzo[d][1,3]oxazine-4,3′-pyrrolidine]-1′-yl)-1-oxo-3-phenylpropan-2-yl)-3-oxo-3,4-dihydro-2H-benzo[b][1,4]thiazine-7-carboxamide 1-oxide] |
